Source: patent US20030082135A1, “Pathway of RANTES-mediated chemokine synthesis in astrocytes and methods of use therefor” (priority 2001, published 2003)

Key:
[1] = tested on: primary neonatal mouse astrocyte cultures; test: RNase protection assay (RPA) for chemokine/cytokine transcripts in astrocyte cultures; assay type: cell-based
Method: Astrocyte isolation and culture. […] RNA isolation and RNase protection assay (RPA). […] RNase protection assays (RPA) for chemokine message were conducted with multi-probe templates according to the manufacture's protocol (RiboQuant assay kit, BD-PharMingen, San Diego, Calif.). Gels were scanned and radioactive bands quantitated using a phosphoimager (Molecular Dynamics, Sunnyvale, Calif.). Levels of uniformly expressed housekeeping genes large ribosomal subunit protein 32-3A (L32) or glyceraldehyde-3-phosphate dehydrogenase (GAPDH), were used for normalization. The value of each chemokine receptor band divided by the value of the indicated housekeeping gene band in the same sample yielded the relative intensity. Normalized receptor expression represents the ratio of the relative intensity following treatment with chemokine versus the relative intensity of medium alone. Treatment with pharmacological inhibitors. Astrocytes were washed and resuspended in serum-and insulin-free complete medium and starved overnight. Cells were treated at 37° C. for 1 h with 100 ng/ml Pertussis toxin (PTx) before addition of RANTES or IL-1. […] The cells were harvested after a 3 h incubation with RANTES; RNA was prepared and assayed by RPA.

murine KC promoter = test: KC promoter luciferase reporter in transfected astrocytes; assay type: cell-based, mouse; settings: 100 ng/ml RANTES, 24 h
From the text: Plasmids, transient transfection, and luciferase activity assay. The KC reporter plasmid was constructed by using a luciferase reporter gene pGL-3 basic vector (Promega, Madison, Wis.) driven by mouse KC promoter (−2878/+43). Wild-type p90RSK expression (WT pKH3) and dominant negative p90RSK expression (ΔΔ RSK pKH3) plasmids were obtained from Dr. John Blenis, Harvard Medical School. Astrocytes were transiently transfected with Lipofectamine 2000 reagent (Life Technologies, Gaithersburg, Md.) according to the manufacturer's protocol. After 24 h, the cells were stimulated with RANTES in absence or presence of the indicated inhibitor, and luciferase activity was determined after an additional 24 h, by the procedure according to the manufacturer (Promega, Madison, Wis.). Relative luciferase activity was normalized for cell lysate protein concentration as determined by BCA protein assay kit (Pierce, Rockford, Ill.). The Relative Fold Induction is the relative intensity of the experimental sample divided by the relative intensity of the medium control.
To establish whether RANTES up-regulation of chemokine production is mediated by activation of promoter elements, primary astrocyte cultures were transiently transfected with a murine KC promoter-luciferase construct, and reporter activity was monitored after RANTES treatment.

[2] = tested on: ICAM-1 and CX3CR1 on astrocytes; test: Flow cytometric analysis of astrocyte receptor proteins; assay type: cell-based, mouse
Method: Flow cytometric analyses. PBS with 0.1% sodium azide was used for all washes and antibody (Ab) dilutions. Cells were pre-incubated 15 min with 0.5 μg Fc Block (BD-PharMingen) then 40 min at 4° C. with 1 μg of the appropriate Ab or matched isotype control immunoglobulin. Fluorescence-labelled cells were analyzed on a Coulter Profile II flow cytometer (Coulter, Hialeah, Fla.).
Another marker of activated astrocytes in MS and EAE lesions is the increased expression of the adhesion receptor, ICAM-1 (Lee, et al., 1999. J Immunol 165:4658-4666). Control astrocyte cultures were stained with anti-ICAM-1, and RANTES treatment further increased the levels of ICAM-1 protein expression about three-fold (mean intensity 50.2 vs. control of 16.3).
The cell surface receptor CX3CR1 was also selected for analysis since astrocyte expression of this receptor may facilitate interactions with endothelial cells and neurons that carry the membrane-tethered ligand for this receptor (Bacon, et al, 2000. J Neuroimmunol 104:92-97). Anti-CX3CR1 stained about 50% of the control astrocyte population. […] The modulation of receptor proteins peaked at 24 h; similar patterns were noted after a 48 h incubation with RANTES but the intensity levels were intermediate between the 0 and 24 h values.

[3] = tested on: cultured mouse astrocytes; test: RT-PCR for KC message in astrocytes; assay type: cell-based
[4] = tested on: phosphorylated RSK in astrocytes; test: Immunofluorescence of phospho-p90RSK translocation; assay type: cell-based, mouse; settings: 100 ng/ml RANTES, 5 or 20 min
Method: Immunofluorescence. Astrocytes were grown on glass coverslips for a day; the cells were then serum-starved for three hours. Astrocytes were treated with RANTES for 5 or 20 minutes. Following treatment, cells were fixed in −20° C. methanol, permeabilized in ice-cold 0.2% Triton X-100 in PBS and incubated with phospho-p90RSK (Thr360/Ser364) antibody overnight at 4° C., followed by incubation with Alexa Fluor 555 goat anti-rabbit IgG (Molecular Probes, Eugene, Oreg.). Nuclei were stained with Hoechst 33258 (1:2000) for 5 min; coverslips were mounted on slides using the ProLong Antifade Kit (Molecular Probes, Eugene, Oreg.). Slides were stored at room temperature in the dark until observation.
The ability of RANTES to induce nuclear translocation of RSK was examined.

GFAP in astrocytes = test: Immunofluorescence of GFAP in astrocytes; assay type: cell-based, mouse; settings: 100 ng/ml RANTES for 1-5 days
Method: Astrocytes associated with Alzheimer's Disease, MS and EAE lesions frequently display increased levels of the intracellular marker GFAP, an indicator of astrogliosis (Xu et al., 1999. Glia 25:390-403). To determine if chemokines could modulate GFAP expression astrocytes were treated with 100 ng/ml RANTES for 1-5 days and then examined for the intracellular marker GFAP by conventional immunofluorescence. Evidence for modulation of GFAP was not observed.

RANTES
production of chemokine transcripts by astrocytes from mice deficient for CCR1, CCR2, CCR3, or CCR5 ([1]; 100 ng/ml): specifically responded | expression of TNF-α, RANTES, KC, MIP-1α, MIP-2, and MCP-1 transcripts ([1]; BALB/cJ neonatal astrocytes, chemokine for 6 h): up-regulated | duration of RANTES transcription ([1]; RANTES-induced): greater than 24 h | time after which TNF-α mRNA disappeared ([1]; RANTES-induced): 18 h | time at which TNF-α mRNA was detected ([1]; RANTES-induced): 1.5 h | time at which bands for RANTES and MIP-1α were visible ([1]; RANTES-induced): 3 h | time by which MIP-1α mRNA was down regulated ([1]; RANTES-induced): ≤ 24 h | time of transient production of IL-6 transcripts ([1]; RANTES-induced): 6 to 24 h | transcripts for the chemokine TCA3 ([1]; RANTES-induced, any time point): not detected | time at which RANTES and IL-6 transcripts appear ([1]; after RANTES stimulation): 4 to 8 h | time at which TNF-α, KC, and MIP-2 transcripts were detected ([1]; after RANTES stimulation): 60 to 90 min | time at which bands for MIP-1α and MCP-1 became visible ([1]; after RANTES stimulation): 2 h | expression of TNF-α, RANTES, KC, IL-6, MIP-1α, MIP-2, and MCP-1 transcripts ([1]; astrocytes treated with RANTES, time course): up-regulated | ability to induce chemokine transcripts after boiling ([1]; boiled for 30 min before incubation with astrocytes): completely destroyed | concentration yielding optimal stimulation of transcripts ([1]; preliminary experiments): 100 ng/mL | stimulation of KC promoter-luciferase reporter activity (murine KC promoter): about four | time of peak modulation of receptor proteins ([2]; RANTES): 24 h | increase of ICAM-1 protein expression ([2]; RANTES treatment vs control astrocytes): about three | ICAM-1 mean intensity ([2]; RANTES treatment, control 16.3): 50.2 | CX3CR1 mean intensity ([2]; RANTES treatment, control of 6.0 as printed): 14.3 | cells stained with anti-CX3CR1 ([2]; after RANTES, control about 50%): less than 30% | synthesis of KC message [3]: induce synthesis of KC message | nuclear translocation of phosphorylated RSK [4]: nuclear translocation was noted at 5 min | modulation of GFAP (GFAP in astrocytes): not observed
